# In ChEMBL document CHEMBL3421596, “A facile synthesis and microtubule-destabilizing properties of 4-(1H-benzo[d]imidazol-2-yl)-furazan-3-amines” (Eur J Med Chem, 2015):
# Active and inactive are the calls of the source. No cut-off for these calls is given here.
# Experiments:
# SN12C = test: Cytotoxicity against human SN12C cells; assay type: functional
# MDA-MB-231 = test: Cytotoxicity against human MDA-MB-231 cells; assay type: functional
# [1] = Cytotoxicity against human OVCAR4 cells; assay type: functional; conditions: OVCAR-4
# CCRF-CEM = test: Cytotoxicity against human CCRF-CEM cells; assay type: functional
# ACHN = test: Cytotoxicity against human ACHN cells; assay type: functional
# SK-MEL-28 = test: Cytotoxicity against human SK-MEL-28 cells; assay type: functional
# MDA-MB-468 = test: Cytotoxicity against human MDA-MB-468 cells; assay type: functional
# [2] = Cytotoxicity against human OVCAR8 cells; assay type: functional; conditions: OVCAR-8, read-out: pGI50 (converted)
# NCI-H23 = test: Cytotoxicity against human NCI-H23 cells; assay type: functional
# SK-MEL-2 = test: Cytotoxicity against human SK-MEL-2 cells; assay type: functional
# SF-539 = test: Cytotoxicity against human SF539 cells; assay type: functional; conditions: read-out: pGI50 (converted)
# NCI-H322M = test: Cytotoxicity against human NCI-H322M cells; assay type: functional
# Paracentrotus lividus [3] = test: Antiproliferative activity in sea urchin embryo assessed as antimitotic activity by measuring cleavage alteration exposed for 8 to 20 mins after fertilization and 45 to 55 mins before first mitotic cycle completion measured 2.5 to […] after fertilization; assay type: functional
# Paracentrotus lividus [4] = test: Antiproliferative activity in sea urchin embryo assessed as destabilization of microtubule by measuring embryo spinning after 15 mins to 20 hrs; assay type: functional
# A498 = test: Cytotoxicity against human A498 cells; assay type: functional
# MOLT-4 = test: Cytotoxicity against human MOLT4 cells; assay type: functional
# SK-MEL-5 = test: Cytotoxicity against human SK-MEL-5 cells; assay type: functional
# A549 = test: Cytotoxicity against human A549 cells; assay type: functional
# [5] = Cytotoxicity against human NCI-ADR-RES cells; assay type: functional; conditions: read-out: pGI50 (converted)
# Paracentrotus lividus [6] = test: Antiproliferative activity in sea urchin embryo assessed as destabilization of microtubule by tuberculate eggs after 15 mins to 20 hrs; assay type: functional, organism-based
# HT-29 = test: Cytotoxicity against human HT-29 cells; assay type: functional
# HOP-92 = test: Cytotoxicity against human HOP92 cells; assay type: functional
# HOP-62 = test: Cytotoxicity against human HOP62 cells; assay type: functional
# Malme-3M = test: Cytotoxicity against human MALME-3M cells; assay type: functional
# DU-145 = test: Cytotoxicity against human DU145 cells; assay type: functional
# T47D = test: Cytotoxicity against human T47D cells; assay type: functional
# [7] = Cytotoxicity against human HCT15 cells; assay type: functional; conditions: HCT-15
# SW-620 = test: Cytotoxicity against human SW620 cells; assay type: functional
# Paracentrotus lividus [8] = test: Antiproliferative activity in sea urchin embryo assessed as antimitotic activity by measuring cleavage arrest exposed for 8 to 20 mins after fertilization and 45 to 55 mins before first mitotic cycle completion measured 2.5 to […] after fertilization; assay type: functional
# [9] = Cytotoxicity against human UACC257 cells; assay type: functional; conditions: UACC-257
# HL-60(TB) = test: Cytotoxicity against human HL-60(TB) cells; assay type: functional
# [10] = Cytotoxicity against human UO31 cells; assay type: functional; conditions: UO-31
# U-251 = test: Cytotoxicity against human U251 cells; assay type: functional
# SR = test: Cytotoxicity against human SR cells; assay type: functional
# M14 = test: Cytotoxicity against human M14 cells; assay type: functional
# SNB-75 = test: Cytotoxicity against human SNB75 cells; assay type: functional
# MDA-MB-435 = test: Cytotoxicity against human MDA-MB-435 cells; assay type: functional; conditions: read-out: pGI50 (converted)
# K562 = test: Cytotoxicity against human K562 cells; assay type: functional
# [11] = Cytotoxicity against human PC3 cells; assay type: functional; conditions: PC-3
# RXF 393 = test: Cytotoxicity against human RXF393 cells; assay type: functional; conditions: read-out: pGI50 (converted)
# KM12 = test: Cytotoxicity against human KM12 cells; assay type: functional
# [12] = Cytotoxicity against human SKOV3 cells; assay type: functional; conditions: SK-OV-3
# TK-10 = test: Cytotoxicity against human TK10 cells; assay type: functional
# NCI-H522 = test: Cytotoxicity against human NCI-H522 cells; assay type: functional
# [13] = Cytotoxicity against human OVCAR5 cells; assay type: functional; conditions: OVCAR-5
# RPMI-8226 = test: Cytotoxicity against human RPMI8226 cells; assay type: functional
# COLO 205 = test: Cytotoxicity against human COLO205 cells; assay type: functional
# [14] = Cytotoxicity against human NCI60 cells; assay type: functional
# [15] = Cytotoxicity against human OVCAR3 cells; assay type: functional; conditions: OVCAR-3, read-out: pGI50 (converted)
# IGROV-1 = test: Cytotoxicity against human IGROV1 cells; assay type: functional
# MCF7 = test: Cytotoxicity against human MCF7 cells; assay type: functional
# SF-268 = test: Cytotoxicity against human SF268 cells; assay type: functional
# 786-0 = test: Cytotoxicity against human 786-0 cells; assay type: functional
# [16] = Cytotoxicity against human HCT116 cells; assay type: functional; conditions: HCT-116
# SF-295 = test: Cytotoxicity against human SF295 cells; assay type: functional
# NCI-H460 = test: Cytotoxicity against human NCI-H460 cells; assay type: functional
# [17] = Cytotoxicity against human UACC62 cells; assay type: functional; conditions: UACC-62
# HCC 2998 = test: Cytotoxicity against human HCC2998 cells; assay type: functional
# BT-549 = test: Cytotoxicity against human BT549 cells; assay type: functional
# LOX IMVI = test: Cytotoxicity against human LOXIMVI cells; assay type: functional
# NCI-H226 = test: Cytotoxicity against human NCI-H226 cells; assay type: functional
# [18] = Cytotoxicity against human Hs578T cells; assay type: functional; conditions: Hs-578T
# SNB-19 = test: Cytotoxicity against human SNB19 cells; assay type: functional
smiles,measurement,setting,value
COc1cc(Cn2c(-c3nonc3N)nc3ccccc32)ccc1C,GI50,SN12C,676 nM
same,GI50,MDA-MB-231,1450 nM
same,GI50,[1],646 nM
same,GI50,CCRF-CEM,380 nM
same,GI50,ACHN,724 nM
same,GI50,SK-MEL-28,794 nM
same,GI50,MDA-MB-468,229 nM
same,GI50,[2],759 nM
same,GI50,NCI-H23,1150 nM
same,GI50,SK-MEL-2,407 nM
same,GI50,SF-539,200 nM
same,GI50,NCI-H322M,537 nM
same,EC,Paracentrotus lividus [3],0.2 µM
same,EC,Paracentrotus lividus [4],>4 µM
same,GI50,A498,89.1 nM
same,GI50,MOLT-4,646 nM
same,GI50,SK-MEL-5,372 nM
same,GI50,A549,562 nM
same,GI50,[5],389 nM
same,Activity,Paracentrotus lividus [6],Active
same,GI50,HT-29,363 nM
same,GI50,HOP-92,363 nM
same,GI50,HOP-62,617 nM
same,GI50,Malme-3M,525 nM
same,GI50,DU-145,513 nM
same,GI50,T47D,575 nM
same,GI50,[7],457 nM
same,GI50,SW-620,331 nM
same,EC,Paracentrotus lividus [8],2 µM
same,GI50,[9],417 nM
same,GI50,HL-60(TB),275 nM
same,GI50,[10],575 nM
same,GI50,U-251,537 nM
same,GI50,SR,389 nM
same,GI50,M14,550 nM
same,GI50,SNB-75,263 nM
same,GI50,MDA-MB-435,170 nM
same,GI50,K562,389 nM
same,GI50,[11],339 nM
same,GI50,RXF 393,269 nM
same,GI50,KM12,437 nM
same,GI50,[12],537 nM
same,GI50,TK-10,1410 nM
same,GI50,NCI-H522,251 nM
same,GI50,[13],776 nM
same,GI50,RPMI-8226,447 nM
same,GI50,COLO 205,372 nM
same,GI50,[14],479 nM
same,GI50,[15],309 nM
same,GI50,IGROV-1,724 nM
same,GI50,MCF7,389 nM
same,GI50,SF-268,776 nM
same,GI50,786-0,646 nM
same,GI50,[16],513 nM
same,GI50,SF-295,389 nM
same,GI50,NCI-H460,355 nM
same,GI50,[17],617 nM
same,GI50,HCC 2998,1450 nM
same,GI50,BT-549,513 nM
same,GI50,LOX IMVI,661 nM
same,GI50,NCI-H226,955 nM
same,GI50,[18],288 nM
same,GI50,SNB-19,724 nM
